Results published in US6916915B1, “Stressor regulated genes” (Duke University, priority 1998, dated 2005).
Several values for one entry are separate records, joined by “and”; a condition that tells them apart may be missing. Equal entries are not always repeated.

Columns and labels:
C. elegans [1] = assay: Northern blot analysis of steady-state mRNA levels after cadmium exposure; format: in vivo, Caenorhabditis elegans; conditions: for Fold-change in mRNA levels following cadmium exposure, VL1 (Northern blot): clone VL1 (mtl-1)
Protocol: (§1) Growth and isolation of C. elegans—The N2 strain of C. elegans was grown in liquid S medium (0.1M NaCl, 50 mM potassium phosphate, pH 6.0, 5 μg/ml cholesterol, 10 mM potassium citrate, 3 mM CaCl2, 3 mM MgCl2, 50 μM EDTA, 25 μM FeSO4, 10 μM MnCl2, 10 μM ZnSO4 and 1 μM CuSO4) using E. coli OP50 as a food source (Brenner, S. (1974) Genetics 77, 71-94). In experiments where nematodes were exposed to cadmium, the medium was supplemented with 100 μM CdCl2 (Freedman, J. H. et al. (1993) J. Biol. Chem. 268, 2554-2564). C. elegans were grown in the presence of metal for 8 h or 24 h at ˜20° C. Nematodes were then collected following centrifugation at 800×g for 5 min. Pellets were suspended in 5 mM NaCl containing 35% sucrose (final concentration) and viable nematodes were collected from the top of the solution following centrifugation at 1000×g for 5 min at 4° C. Nematodes were then washed three times by suspension in M9 buffer (22 mM KH2PO4, 42 mM Na2HPO4, 85 mM NaCl, 1 mM MgSO4) followed by sedimentation at 800×g. Washed nematode pellets were finally suspended in a small volume of M9 buffer, rapidly frozen in liquid nitrogen and stored at −80° C.
RNA isolation—Total RNA was isolated from mix-stage populations of C. elegans exposed to 100 μM CdCl2 for 8 h and 24 h and control, non-exposed nematodes. Frozen worms were first ground into a fine powder using a liquid nitrogen-cooled mortar and pestle. Powdered C. elegans (200 mg) were then homogenized in 2 ml of TRIzol (GIBCO/BRL). RNA was then collected from the aqueous phase following the addition of chloroform, precipitated by adding isopropyl alcohol and then air-dried. The dried RNA pellet was then dissolved in diethyl pyrocarbonate (DEPC)-treated water. For some experiments, poly(A^+) RNA was subsequently isolated using the Poly(A) Tract System following manufacturer's instructions (Promega).
Northern Blot Analysis-Samples of total RNA (20 μg) or poly(A^+) RNA (2 μg) were denatured in a 2.2M formaldehyde/50% (v/v) formamide buffer and then subjected to denaturing gel electrophoresis on a 1.5% agarose/2.2M formaldehyde gel. Size-fractionated RNAs were then transferred to Nytran membrane (Schleicher and Schuell). Membranes were probed with ^32P-labeled cDNA fragments of the differentially expressed mRNAs. cDNAs to be used as probes were generated by the PCR from the cloned DNA fragments recovered from differential display gels. cDNAs were labeled with [α-^32]dCTP (Amersham) by random-primed labeling. Membranes were hybridized in 6 ×SSC (1×SSC=0.15M sodium chloride, 15 mM sodium citrate, pH 7.0), 1.25× Denhardt's solution, 0.5% sodium dodecyl sulfate (SDS), 300 ng denatured sonicated salmon sperm DNA and heat-denatured probe at 42° C. for 16 h. Following hybridization, membranes were washed at a high stringency of 50° C. for 30 min in 0.1×SSC/0.1% SDS. The amount of probe hybridizing to the RNA was determined by PhosphorImager analysis (Molecular Dynamic System) . After images were obtained, membranes were incubated at 95° C. for 1 h in 0.1% SDS to remove the bound probe. They were then hybridized with a ^32P-labeled C. elegans myosin light-chain probe, which served as a loading control (Freedman, J. H. et al. (1993) J. Biol. Chem. 268, 2554-2564). As a positive control, membranes were also hybridized to a ^32P-labeled C. elegans metallothonein-2 (mtl-2) cDNA probe (Freedman, J. H. et al. (1993) J. Biol. Chem. 268, 2554-2564). Quantification of radioactivity was performed using the ImageQuant program (Molecular Dynamic System). Steady-state levels of mRNA expression were all normalized to that of the constitutively expressed myosin light-chain mRNAs (Freedman, J. H. et al. (1993) J. Biol. Chem. 268, 2554-2564; Cummins, C. et al. (198B) Mol. Cell. Biol 8, 5334-5349).

C. elegans [2] = assay: mRNA differential display of control and cadmium-treated nematodes; format: in vivo, Caenorhabditis elegans; conditions: cadmium-treated C. elegans cDNA compared to the control
Protocol: as §1
RNA isolation—Total RNA was isolated from mix-stage populations of C. elegans exposed to 100 μM CdCl2 for 8 h and 24 h and control, non-exposed nematodes. […]

[Cl][Cd][Cl] [cadmium, CdCl2]
steady-state level of mtl-2 mRNA (C. elegans [1]; 100 μM CdCl2 for 24 h vs control C. elegans): increased | Fold-change in mRNA levels following cadmium exposure, DDRT16 (Northern blot) (C. elegans [1]; clone DDRT16, 24 hours, 100 μM CdCl2, value in parenthesis, by Northern blot): 3.5 fold | Fold-change in mRNA levels following cadmium exposure, VL1 (Northern blot) (C. elegans [1]; 8 hours, 100 μM CdCl2, value in parenthesis, by Northern blot): (4.7) fold | Fold-change in mRNA levels following cadmium exposure, VL1 (Northern blot) (C. elegans [1]; 24 hours, 100 μM CdCl2, value in parenthesis, by Northern blot): (5.2) fold | Fold-change in mRNA levels following cadmium exposure, VL19 (Northern blot) (C. elegans [1]; clone VL19, 24 hours, 100 μM CdCl2, value in parenthesis, by Northern blot): 2.3 fold | Fold-change in mRNA levels following cadmium exposure, VL21 (Northern blot) (C. elegans [1]; clone VL21, 24 hours, 100 μM CdCl2, value in parenthesis, by Northern blot): 2 fold and 2.0 fold | band intensity of VL9 cDNA in differential display (C. elegans [2]): decreased band intensity
